In patent US10272055B2, “Therapeutic compounds and methods” (Regents of the University of Minnesota, priority 2014, dated 2019):
Values joined by “and” are separate entries in the source; they are usually repeats but may differ in a detail not shown here. Identical values can stand only once. “Also recorded” adds a separate entry of the source.

What was measured:
MCF-7 cell line = test: MTT growth assay, MCF-7 line; assay type: cell-based
Protocol: The growth of the MCF-7 line was measured by MTT assay at 24 hours. Cells were plated in complete media in the presence of serum (10% FBS) and cultured at 37° C. with 5% CO2 and treated with the biguanide or DMSO vehicle. Growth was measured at 24 hours by MTT assay.
Cells were plated in complete media in the presence of serum (10% FBS) and cultured at 37° C. with 5% CO2 and treated with HBB or DMSO vehicle. Growth was measured at 24 hours by MTT assay.

MDA-MB-231 [1] = test: MTT growth assay, MDA-MB-231 line; assay type: cell-based; settings: MTT assay at 24 hours, 10% FBS
Protocol: FIG. 30 illustrates HBB inhibits proliferation of MCF7 and MDA-MB-231 lines. Cells were plated in complete media in the presence of serum (10% FBS) and cultured at 37° C. with 5% CO2 and treated with HBB or DMSO vehicle. Growth was measured at 24 hours by MTT assay. Results were converted to percent growth of control and represented as mean±S.E. (n=8).

CYP3A4D3-24 = CYP3A4D3-24 (Homo sapiens, UniProt P08684); test: Spectral binding (spin shift) to CYP3A4D3-24; settings: vs metformin
AMPK = AMPK phosphorylation Western blot in MCF7; assay type: cell-based
Protocol: Western blotting analysis was performed in triplicate.
Cells were plated in complete media in the presence of serum (10% FBS) and cultured at 37° C. with 5% CO2 and treated with biguanides for 6 hours before harvesting. Total protein was extracted and analyzed by Western-blotting with GAPDH as an internal control.
Cells were plated in complete media in the presence of serum (10% FBS) and cultured at 37° C. with 5% CO2 and treated with 14,15-EET or EtOH control for 24 hours before harvesting. Total protein was extracted and analyzed by Western-blotting with GAPDH as an internal control.

MDA-MB-231 xenograft = MDA-MB-231 xenograft in nude mice; assay type: in vivo; settings: HBB 4 mg/kg ip daily vs PBS/vehicle
Protocol: FIG. 3A. MCF-7 xenograft with 3×10^6 cells in the 2nd mammary fat pad on day 0. HBB (4 mg/kg ip daily) (ν) or PBS (ρ) treatment began on day 1. * indicates P<0.05. FIG. 3B. MDAMB-231 xenograft with 1×10^6 cells in the 2nd mammary fat pad on day 0. HBB (4 mg/kg ip daily) (ν) or PBS (ρ) treatment began on day 1. N=20 mice per arm for each study; error bars are SEM.
FIG. 44A. Nude mice were inoculated with 3×10^6 MCF-7 cells and treated with vehicle (Δ) HBB at the MTD (4 mg/kg/day ip) (▪). (* indicates P<0.05). Error bars are SEM. […] The dose limiting toxicity was weight loss. At the MTD there was a well-tolerated 4% reduction of weight at 42 days (P<0.0001; data not shown). FIG. 44B. Nude mice were inoculated with 1×10^6MDA-MB-231 cells and treated with HBB at the MTD (4 mg/kg/day ip).

MCF7 line = test: 14,15-EET protection against biguanide growth inhibition, MTT, MCF7; assay type: cell-based; settings: MCF-7, exogenous (±)-14,15-EET (1 uM)
Protocol: Cells were plated in complete media in the presence of serum (10% FBS) and cultured at 37° C. with 5% CO2 and treated with biguanides for 24 hours in the presence or absence of 1 uM 14,15-EET. Growth was then measured at 24 hour by MTT assay.

MDA-MB-231 line = test: 14,15-EET protection against biguanide growth inhibition, MTT, MDA-MB-231; assay type: cell-based; settings: MDA-MB-231, 1 uM 14,15-EET, 24 hours
Protocol: Cells were plated in complete media in the presence of serum (10% FBS) and cultured at 37° C. with 5% CO2 and treated with HBB for 24 hours in the presence and absence of 1 uM 14,15-EET. Growth was then measured at 24 hours by MTT assay.
Results are expressed as mean±standard deviation (n=8).

MCF7 = test: Cell cycle analysis by flow cytometry, MCF7; assay type: cell-based; settings: MCF7, HBB 20 uM, 6 hours
Protocol: (§1) Cells in log phase growth treated with HBB (20 uM) or DMSO for 6 hours were trypsinized and fixed in 70% ethanol at 4° C. overnight. The cells were washed with cold PBS and resuspended in Nicoletti buffer (50 μg/ml propidium iodide, 0.1% Triton X-100, 0.1% sodium citrate, pH 7.4, and 1 mg/ml RNase). The samples were then analyzed by flow cytometry (BD Biosciences), and data were analyzed using FlowJo software (Tree Star). Representative profile are shown.

MDA-MB-231 [2] = test: Cell cycle analysis by flow cytometry, MDA-MB-231; assay type: cell-based; settings: MDA-MB-231, HBB 20 uM, 6 hours
Protocol: as §1

MCF-7 = test: HBB plus paclitaxel combination, MTT, Chou-Talalay analysis; assay type: cell-based; settings: MCF-7, HBB vs paclitaxel = 800:1, 24 hours
Protocol: Cells were seeded into 96-well plates at 3,000 cells/well and grown over night. The cells were then treated with different doses of HBB, paclitaxel and combination of the two agents at a constant ratio (HBB vs paclitaxel=800:1). The treatments were conducted for each condition in quadruplicate. […] Combined dose-response curves were fitted to Chou-Talalay lines, and Chou-Talalay combination indices (CIs) were calculated for each fraction affected (Fa) using the equation CI=(D1/Dx1)+(D2/Dx2)+(D1)(D2)/[(Dx1)(Dx2)], where Dx1 and Dx2 are the HBB and paclitaxel doses, respectively, that are required for achieving a particular Fa, and D1 and D2 are the doses of the two agents (combined treatment) required for achieving the same Fa. For each Fa, CI values of 0.8 and 1.2 are cutoffs for synergy and antagonism, respectively (See FIG. 42).

CD31 = test: Angiogenesis by CD31 staining, MDA-MB-231 xenograft tumors; assay type: in vivo, mice; settings: MDA-MB-231 model, HBB 4 mg/kg/day ip vs PBS
Protocol: Xenogaft tumors from the MCF-7 and MDA-MB-231 models were tested for inhibition of angiogenesis by HBB using CD31 staining.
The samples were cryosectioned at 6 um and fixed with chilled 100% acetone for 10 minutes. Samples were blocked with 3% donkey serum in PBS for 30 minutes at 37 C.
The antibody used to stain CD-31 was from BD Pharmingen PE Rat anti Mouse CD31, catalog number 553373. It was used at a dilution of 1:50 in blocking buffer for 1 hour at 37 C.
The samples were then stained for 10 minutes with DAPI at a concentration of 1:2000, from Life Technologies, catalog number D1306.
Each sample was imaged in 4-5 areas. There were 3 samples per condition, PBS vs HBB.

Chain of CYP3A4D3-24 (P08684 with tags, fused parts or gaps): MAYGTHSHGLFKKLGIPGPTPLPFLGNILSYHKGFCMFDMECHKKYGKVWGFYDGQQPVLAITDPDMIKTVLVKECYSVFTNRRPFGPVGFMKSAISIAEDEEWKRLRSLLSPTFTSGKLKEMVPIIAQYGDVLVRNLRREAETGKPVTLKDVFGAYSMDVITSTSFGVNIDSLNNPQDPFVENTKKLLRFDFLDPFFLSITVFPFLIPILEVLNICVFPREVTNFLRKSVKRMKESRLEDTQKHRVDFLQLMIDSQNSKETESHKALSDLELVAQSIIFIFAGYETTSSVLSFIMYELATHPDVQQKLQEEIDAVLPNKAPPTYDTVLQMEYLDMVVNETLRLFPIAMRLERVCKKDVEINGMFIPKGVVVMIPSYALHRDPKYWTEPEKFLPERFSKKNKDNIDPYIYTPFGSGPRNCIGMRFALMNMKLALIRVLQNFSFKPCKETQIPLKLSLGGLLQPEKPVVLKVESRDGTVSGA

Question: With CCCCCCNC(=N)NC(=N)NCc1ccccc1 [HBB, N1-hexyl-N5-benzyl biguanide] as the molecule, how does the IC50 (MCF-7 cell line; MTT assay at 24 hours, 10% FBS, read-out: IC50, MCF-7 growth) read?
Answer: The IC50 was ~20 µM and 20 µM.

Question: And the “fold more potent than metformin, MCF-7 growth” value (MCF-7 cell line; vs metformin)?
Answer: The value was about 250 fold.

Question: And the IC50 (MDA-MB-231 [1])?
Answer: The IC50 was 22.5 µM.

Question: And the “fold more potent than metformin, delta 3-24 CYP3A4 spin shift” value (CYP3A4D3-24)?
Answer: The value was about 12 fold.

Question: And the “AMPK phosphorylation relative to control” value (AMPK; MCF7, 6 hours, metformin, buformin, phenformin 1 mM, HBB 20 uM)?
Answer: The value was “more potently activates AMPK; also recorded: increased phosphorylation of AMPK”.

Question: What about the “fold more potent than metformin, activation of AMPK phosphorylation” value (AMPK; vs metformin) of the same molecule?
Answer: Its value is about 50 fold.

Question: What about the “tumor growth, MDA-MB-231 xenograft” value (MDA-MB-231 xenograft) of the same molecule?
Answer: Its value is “tumor growth wasn't inhibited; also recorded: no significant difference between the HBB and vehicle growth curves”.

Question: And the “rescue of MCF-7 growth by 14,15-EET in the presence of the biguanide” value (MCF7 line)?
Answer: The value was “partially restores growth; also recorded: partial rescue”.

Question: What about the “rescue of MDA-MB-231 growth by 14,15-EET in the presence of the biguanide” value (MDA-MB-231 line) of the same molecule?
Answer: The value was “no protection”.

Question: What about the cell cycle arrest (MCF7) of the same molecule?
Answer: Its cell cycle arrest is “induces G0/G1 and G2/M cell cycle arrest”.

Question: What about the cell cycle arrest (MDA-MB-231 [2]) of the same molecule?
Answer: The cell cycle arrest was “induces G0/G1 and G2/M cell cycle arrest”.

Question: What about the “combination index plot, HBB with Taxol” value (MCF-7) of the same molecule?
Answer: The value was “synergy”.

Question: And the “angiogenesis (CD31 staining)” value (CD31)?
Answer: Its value is “inhibited angiogenesis in both models”.
